We go through six compounds from patent publication US5506213A, “Adminstration of 2'-halo-2'-deoxy adenosine to treat inflammatory bowel disease” (priority 1994, dated 1996).

SMILES strings stand for the structures.

As usually defined, the viability is a per cent measure of how many cells are alive, often set against a control.

Data set [1] deals with Adenocarcinoma 755 (Ad755). The note with it: cited from earlier work.
For data set [2], the system named is adenosine deaminase. The note with it: cited from earlier work.
For data set [3], the system named is HIV. The note with it: cited from earlier work.
The subject of data set [4] is HIV. Put plainly: Inhibition of p24 (gag) production of HIV from MDM cells, 3-day assay. It counts as cell-based. Conditions: 0.1-100 μM.
Data set [5] deals with HIV. Conditions: cultured human T lymphoblasts; cited from earlier work.
For data set [6], the system named is Peripheral blood lymphocytes. Put plainly: Direct comparative cytotoxicity assay (Table II), peripheral blood lymphocytes. Format: cell-based, human. The note with it: Peripheral blood lymphocytes. From the text: (§1) The two compounds, CdA and CAFdA, were also compared for in vitro activity against another group of human cell lines in a direct comparative assay.
(§2) ^1 Concentration that produced 50 percent reduction in all numbers

For data set [7], the system named is delayed-type hypersensitivity (DTH) response. Put plainly: Delayed-type hypersensitivity to ovalbumin in guinea pigs, oral and intraperitoneal treatment. Format: in vivo, guinea pig. The note with it: dexamethasone 5 mg/kg, CdA or CAFdA 1 mg/kg, 24 and 48 hours, p<0.01. The procedure: (§3) Delayed-type hypersensitivity (DTH) is a cell-mediated immune response that typically takes longer than 12 hours to develop. In the guinea pig, a DTH reaction to an antigen can be established by first immunizing the animal with the antigen in an adjuvant such as Freund's complete adjuvant. Subsequent intradermal injection of the antigen causes no change for at least 10 hours, after which there is a gradual increase in erythema and swelling in response to antigen injection. This response peaks about at about 24 hours after challenge, then gradually subsides.
Histologically, the inflammatory response is characterized by intense inundation of the site with mononuclear cells, of which about half are lymphocytes and the other half monocytes. DTH is therefore an indicator of a monocyte-mediated immune reaction.
In one study, guinea pigs were sensitized to ovalbumin in adjuvant. The animals were then treated either orally or intraperitoneally with saline (control), dexamethasone (5 mg/kg), CdA (1 mg/kg) or CAFdA (1 mg/kg). The animals were then injected with ovalbumin intradermally to elicit the DTH response. The mean area of the swelling size was measured for each animal (nine or ten animals were treated for each protocol).

The subject of data set [8] is CEM, wild type. Put plainly: Direct comparative cytotoxicity assay (Table II), CEM wild type. Conditions: CEM, wild type. Format: cell-based, human.
Excerpt: as §1, §2
(§4) ^2 CEM cells are T lymphoblasts; DHL9 cells are lymphoblasts.

In data set [9] the test system is monocytes. The data set is described as follows: Direct comparative cytotoxicity assay (Table II), monocytes. The note with it: Monocytes. Format: cell-based, human.
Excerpt: as §1, §2

Data set [10] concerns T cell line Molt-4. Put plainly: cells. Conditions: Homo sapiens.
Description: (§5) Seven different cell lines were treated with varying concentrations of 2-chloro-9,1'-beta-2'-deoxy-2'-fluoro-D-arabinofuranosyladenine (CAFdA) to determine percent viability. CAFdA concentrations ranging from 0 to about 260 nM were used to treat each cell line in vitro.
Data set [11] has as its system monocyte-like cell line U937. Put plainly: cells. Conditions: Homo sapiens, U-937.
Description: as §5
The test system of data set [12] is monocyte-like cell line THP-1. Put plainly: cells. The note with it: Homo sapiens.
Description: as §5
Data set [13] concerns DHL9, wild type. The data set is described as follows: Direct comparative cytotoxicity assay (Table II), DHL9 wild type. Conditions: DHL9, wild type. Format: cell-based, human.
Excerpt: as §1, §2, §4

Data set [14] concerns monocyte-like cell line HL-60. Put plainly: cells. Conditions: Homo sapiens.
Description: as §5
Data set [15] concerns DHL9, Increased ribonucleotide reduction. The data set is described as follows: Direct comparative cytotoxicity assay (Table II), DHL9 increased ribonucleotide reduction. Format: cell-based, human. Conditions: DHL9, Increased ribonucleotide reduction.
Excerpt: as §1, §2, §4

Data set [16] relates to CEM, Increased 5'-nucleoside. Put plainly: Direct comparative cytotoxicity assay (Table II), CEM increased 5'-nucleoside. Conditions: CEM, Increased 5'-nucleoside. It counts as cell-based, human.
Excerpt: as §1, §2, §4

The subject of data set [17] is T cell line CEM. Put plainly: cells. Conditions: Homo sapiens.
Description: as §5
Data set [18] has as its system antigen-induced arthritis. The data set is described as follows: Antigen-induced arthritis in rabbits. It counts as in vivo. The note with it: CdA 1 mg/kg, tepoxalin 25 mg/kg, naproxen 5 mg/kg. Here is the method: Antigen-induced arthritis in rabbits is an animal model of rheumatoid arthritis. In this model, the rabbits are sensitized to an antigen such as ovalbumin or methylated bovine serum albumin in an adjuvant. Several weeks later, the same antigen is injected directly into the joints of the animal. […] Pettipher et al., Br. J. Exp. Path., 69:113-122 (1988).
Rabbits with antigen-induced arthritis were treated with CdA (1 mg/kg), tepoxalin (25 mg/kg) or naproxen (5 mg/kg).

The conditions of data set [19]: pH value of 1 at 37 degrees C.; cited from earlier work.
The test system of data set [20] is delayed-type hypersensitivity (DTH) reaction. The data set is described as follows: Delayed-type hypersensitivity to ovalbumin in guinea pigs, different dosages of CdA. Format: in vivo, guinea pig. The note with it: dexamethasone 5 mg/kg; 24 and 48 hours post-challenge; p<0.01. Here is the method: as §3
In another study, the effects of different dosages of CdA on the DTH reaction were examined. Guinea pigs sensitized to ovalbumin were treated with saline (control), dexamethasone (5 mg/kg), and CdA at 1 mg/kg or 0.1 mg/kg. Three days after treatment, the animals were challenged with ovalbumin intradermally. The areas of the skin lesions were measured at 6, 24, and 48 hours after challenge.

Where [21] appears, read: Homo sapiens, 120 h, read-out: ID50: concentration that produced 50 percent reduction in all numbers after five days.

As to `Nc1nc(F)nc2c1ncn2[C@@H]1O[C@H](CO)[C@@H](O)[C@H]1O` [2-fluoroadenosine], the tolerated dose result in [1] (C57 black mice implanted with Ad755) was “about 1 milligram per kilogram of body weight”. The “antitumor activity at the tolerated level” value in [1] (against Ad755 as well as leukemia L1210 and the Erlich ascites tumor) is “inactive”. Moreover, the “substrate behaviour toward adenosine deaminase” value in [2] is “negligible activity”.

For the compound `Cc1cn([C@H]2C[C@H](N=[N+]=[N-])[C@@H](CO)O2)c(=O)[nH]c1=O` [AZT, 3'-azido-3'-deoxythymidine], the “virus isolation rates from peripheral blood cells” value in data set [3] (clinical trials with AZT) is listed as “no effect”. Moreover, the “CD4 (T4) peripheral blood cell counts” value in data set [3] (patients with AIDS or AIDS-related complex) is listed as “elevation of CD4 (T4) peripheral blood cell counts”. For the same compound, the tolerability result in data set [3] (patients with AIDS or AIDS-related disease complexes) is “well tolerated”. In [4], the “inhibition of p24 (gag) production” value is listed as “none of those compounds provided any inhibition”. The “replication of HIV” value in [5] is “blocked the replication of HIV”.

Regarding `Nc1nc(Cl)nc2c1ncn2[C@@H]1O[C@H](CO)[C@@H](O)[C@@H]1F` [CAFdA, 2-chloro-9,1'-beta-2'-deoxy-2'-fluoro-D-arabinofuranosyladenine], the IC50 stood at 18 nM in [6] (Homo sapiens, Lymphocyte, 120 h, read-out: ID50: concentration that produced 50 percent reduction in all numbers after five days); 67 nM in [8] (setting [21]); 47 nM in data set [9] (Homo sapiens, Monocyte, 120 h, read-out: ID50: concentration that produced 50 percent reduction in all numbers after five days); 150 nM in data set [13] (setting [21]); 6000 nM in data set [15] (setting [21]). Besides, the “ID50 ratio CAFdA / CdA” value was found to be 1.9 in [6]; 3.1 in data set [8]; 2.1 in [9]; 1.9 in [13]; 15 in [15]; 2.1 in [16]. Moreover, the “swelling after ovalbumin challenge compared to saline control” value in data set [7] (intraperitoneal) and in [7] (oral) was “significant inhibition of swelling” throughout. The viability at 0.06 µM in data set [10], in data set [11], in data set [12], in [14] and in data set [17] was < 20% each time. Besides, the viability at 0.13 µM in [10], in data set [11], in data set [12], in [14] and in data set [17] was < 10% throughout. Besides, the viability at 0.05 µM in data set [12], in [14] and in data set [17] was ≤ 60% throughout.

As for `COc1ccc2cc([C@H](C)C(=O)O)ccc2c1` [Naproxen, naproxen, reference compound], the “pathological examination of joints compared to untreated controls” value in data set [18] is “appeared to exacerbate the inflammation and tissue destruction”.

`Nc1ncnc2c1ncn2[C@H]1CC[C@@H](CO)O1` [ddA, 2',3'-dideoxyadenosine]: the half-time in [19] is 35 s. In data set [4], the “inhibition of p24 (gag) production” value is recorded as “none of those compounds provided any inhibition”. The “substrate behaviour toward adenosine deaminase” value in [2] was “known substrate for adenosine deaminase”.

For the compound `C[C@@H]1C[C@H]2[C@@H]3CCC4=CC(=O)C=C[C@]4(C)[C@@]3(F)[C@@H](O)C[C@]2(C)[C@@]1(O)C(=O)CO` [dexamethasone, reference compound], the “swelling after ovalbumin challenge compared to saline control” value in [7] (intraperitoneal) and in [7] (oral) was “significant inhibition of swelling” each time. In data set [20], the “swelling compared to control saline treated animals” value is reported as “effective at inhibiting swelling”.
